The source of these data is ChEMBL document CHEMBL1137889, “Synthesis and antienteroviral activity of a series of novel, oxime ether-containing pyridyl imidazolidinones” (Bioorg Med Chem Lett, 2004).

One may read the IC50 as the concentration needed to halve the response being measured. A lower IC50 goes with greater potency. By CC50 is commonly meant the concentration that lowers cell viability or growth by half. Lower therefore signals greater toxicity to the cells.

Assay [1] relates to Coxsackievirus. As to the kind of experiment: inhibition concentration required against coxsackievirus B5 was determined by plaque reduction assay. The format is functional, organism-based. For orientation: Plaques are areas of infected cells; plaque reduction assays count them against a control.
For assay [2], the system named is Coxsackievirus. The assay can be described thus: inhibition concentration required against coxsackievirus A16 was determined by plaque reduction assay. The format is functional, organism-based.
Assay [3] deals with Enterovirus A71. The assay can be described thus: inhibition concentration required against human enterovirus 71 (2231) genotype C was determined by plaque reduction assay. The format is functional, organism-based. The note with it: Enterovirus A.
Assay [4] has as its system Echovirus. The assay can be described thus: inhibition concentration required against echovirus 29 was determined by plaque reduction assay. The format is functional, organism-based.
The test system of assay [5] is Coxsackievirus. As to the kind of experiment: inhibition concentration required against coxsackievirus A10 was determined by plaque reduction assay. The format is functional, organism-based.
Assay [6] deals with Coxsackievirus. As to the kind of experiment: inhibition concentration required against coxsackievirus B6 was determined by plaque reduction assay. The format is functional, organism-based.
The subject of assay [7] is Coxsackievirus. As to the kind of experiment: inhibition concentration required against coxsackievirus B2 was determined by plaque reduction assay. The format is functional, organism-based.
In assay [8] the test system is Enterovirus A71. The assay can be described thus: inhibition concentration required against human enterovirus 71 (2086) genotype C was determined by plaque reduction assay. The format is functional, organism-based. The following applies: Enterovirus A.
For assay [9], the system named is Rhabdomyosarcoma cell. As to the kind of experiment: Concentration required for 50% cytotoxicity against human rhabdomyosarcoma cell lines. The format is functional.
In assay [10] the test system is Enterovirus D68. As to the kind of experiment: inhibition concentration required against human enterovirus 68 was determined by plaque reduction assay. The following applies: Enterovirus D.
Assay [11] concerns Coxsackievirus. As to the kind of experiment: inhibition concentration required against coxsackievirus B1 was determined by plaque reduction assay. The format is functional, organism-based.
In assay [12] the test system is Coxsackievirus. The assay can be described thus: inhibition concentration required against coxsackievirus B4 was determined by plaque reduction assay. The format is functional, organism-based.
The subject of assay [13] is Coxsackievirus. The assay can be described thus: inhibition concentration required against coxsackievirus A9 was determined by plaque reduction assay. The format is functional, organism-based.
For assay [14], the system named is Coxsackievirus. The assay can be described thus: inhibition concentration required against coxsackievirus A24 was determined by plaque reduction assay. The format is functional, organism-based.
For assay [15], the system named is Enterovirus A71. The assay can be described thus: inhibition concentration required against human enterovirus 71 strain 4643 was determined by plaque reduction assay. The format is functional, organism-based. The note with it: Enterovirus A.
Assay [16] has as its system Echovirus. As to the kind of experiment: inhibition concentration required against echovirus 9 was determined by plaque reduction assay. The format is functional, organism-based.
In assay [17] the test system is Enterovirus A71. As to the kind of experiment: inhibition concentration required against human enterovirus 71 (1743) genotype B was determined by plaque reduction assay. The format is functional, organism-based. The note with it: Enterovirus A.
In assay [18] the test system is Enterovirus A71. The assay can be described thus: inhibition concentration required against human enterovirus 71 (BrCr) genotype A was determined by plaque reduction assay. The format is functional, organism-based.
The test system of assay [19] is Coxsackievirus. As to the kind of experiment: inhibition concentration required against coxsackievirus B3 was determined by plaque reduction assay. The format is functional, organism-based.

Regarding `O=C1N(CCCCCOc2ccc(-c3ccc(Cl)cc3)cc2)CCN1c1ccncc1`, the IC50 in assay [1] is 4180 nM; in [2], more than 25000 nM; in assay [3], 80 nM; in [4] it was 30 nM; in [5], 8610 nM; in assay [6], more than 25000 nM. Also, the IC50 is more than 25000 nM in assay [7]; 70 nM in assay [8]; more than 25000 nM in assay [10]; more than 25000 nM in assay [11]; 3140 nM in [12]; 40 nM in assay [13]. For the same molecule, the IC50 in assay [14] is 140 nM; in assay [15], 30 nM; in assay [16] it was 300 nM; in assay [17] it was 90 nM; in assay [18], 50 nM; in assay [19] it was more than 25000 nM. The molecule also gave a CC50 in [9] of more than 12500 nM.
